Data as given in patent US20200360391A1, “Medicinal Composition for Treating Intractable Heart Disease” (Osaka University, priority 2016, published 2020).

Legend:
[1] = system: canine rapid pacing severe dilated cardiomyopathy model; experiment: Canine rapid pacing severe dilated cardiomyopathy model, long-term repeated oral administration; type: in vivo
Description: (§1) A sham operation was performed for a Sham group. After the pacemaker was operated, and it was confirmed in an electrocardiogram (Lead II) that the heartbeat was linked to the pulse rate, the incision site was sutured.
(§2) The animals were grouped evenly based on the cardiac function (EF) 4 weeks after rapid pacing. […] An empty capsule was administered to the control group in the same manner.
(§3) Electrocardiography (Lead II) was performed once a week during the period of induction of pathological condition (4 weeks). After administration of the test substance, electrocardiography was performed at the time of echocardiographic measurement. Examination with a stethoscope was performed every day. Specifically, the number of beats per 10 seconds was measured every day, and if an abnormality was found in examination with a stethoscope, an electrocardiogram was measured to confirm the presence or absence of pacing errors.
(§4) The general condition of the animals (death, posture, activity, color of gums, the presence or absence of ascites, feces, etc.) and food intake were observed every day (at the time of administration in the morning and in the evening, i.e., twice). […] The survival rate was observed twice daily for 6 months from the day of the start of administration of the test substance. Moribund animals were determined to be dead when they had no reaction in at least one item of examination of pinna, auditory, and nociception reflexes.
(§5) The body weight was measured on the date of implantation of the pacemaker, the date of operation of the pacemaker, and every week thereafter.
(§6) Echocardiographic measurement was performed before the preparation of the model (Pre); Week 4 (at the time of grouping) (before administration of the test substance); and 2 weeks, 4 weeks (1 month), 2 months, 3 months, 4 months, 5 months, and 6 months (at the time of dissection) after the start of administration of the test substance, as measurement points.
(§7) The echocardiographic measurement was performed without anesthesia, using an ultrasound imaging apparatus. A sector probe (10 MHz) was placed on the chest, and the diastolic left ventricular internal dimension (LVIDd), the systolic left ventricular internal dimension (LVIDs), the interventricular septal thickness at end-diastole (IVSTd), and the left ventricular posterior wall thickness in end diastole (LVPWd) were measured at M-mode. Moreover, the ejection fraction […] and the fractional shortening […] were calculated.

[2] = as above; type: in vivo; conditions: dog, in vivo; after oral administration, 3 mg/kg
Description: as §1, §2, §3, §4, §5, §6, §7

rats = conditions: repeated oral administration in rats; cited from earlier work
[3] = system: spontaneous dilated cardiomyopathy (J2N-k) hamster model; experiment: Spontaneous dilated cardiomyopathy (J2N-k) hamster model, 8-week administration from 20 weeks of age (Tests 1-3): echocardiography, body weight
In short: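 Male J2N-k δ-glycan-deficient hamsters (delivered at 18 weeks; 2-week acclimation) were dosed by oral gavage twice daily for 8 weeks in 0.5% CMC-Na (G in distilled water; 5 mL/kg) at human-equivalent doses, e.g. cilostazol 1.7 mg/kg. Camostat PLGA preparation was given 10 mg/kg s.c. every 4 weeks. Echocardiographic EF/FS changes from baseline were assessed at 4 and 8 weeks versus vehicle.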

dogs = conditions: repeated oral administration in dogs; cited from earlier work
[4] = system: rat coronary artery complete ischemia model; experiment: Model of ischemia (MI) by rat coronary artery complete ligation (Tests 1 and 2): echocardiography, body weight; conditions: for Body weight / % FS: value of change compared with the value on Day 1 / EF: value of change compared with the value on Day 1: MI Test 1, NOAEL doses, mean ± S.D.
[5] = system: spontaneous dilated cardiomyopathy (J2N-k) hamster model; experiment: Long-term (36 weeks) administration in J2N-k hamster model: cardiac function, survival rate; type: in vivo
Description: ONO-1301 and (K) candesartan, which is ARB, were each individually orally administered to a δ-glycan-deficient spontaneous dilated cardiomyopathy (J2N-k) hamster model twice daily repeatedly for 36 weeks, after the onset of pathological condition (20 weeks old); and changes in cardiac function and survival rates in long-term administration were compared for evaluation. Specifically, echocardiographic measurement was performed after the onset of pathological condition (20 weeks old); the animals were grouped evenly based on the ejection fractions (EF values) and the body weights (Table 15), and each test substance was individually administered for 36 weeks.
The test was performed in the same manner as described in the section “1. Investigation of effects in spontaneous dilated cardiomyopathy (J2N-k) hamster model” above.
ONO-1301 was administered at 3 mg/kg twice per day. Candesartan was administered at 3 mg/kg once per day, and only vehicle was administered at the second administration. To the control group, vehicle (0.5% CMC-Na) was administered twice daily.

[6] = Test 1, p.o. b.i.d., NOAEL-based dose

In the case of O=C(O)COc1cccc2c1CCC=C2CCO/N=C(\c1ccccc1)c1cccnc1 [Compound A, (E)-[5-[2-[1-phenyl-1-(3-pyridyl)methylideneaminooxy]ethyl]-7,8-dihydronaphthalen-1-yloxy]acetic acid], the “Number of animals alive 26 weeks after start of administration” value ([1]; 3 mg/kg p.o. twice daily) was 1/6, the “Time after start of administration at which death was first observed” value ([1]; 3 mg/kg p.o. twice daily) was 44 days and the “Survival rate (Kaplan-Meier curve) compared with control” value ([1]; 3 mg/kg p.o. twice daily, 26 weeks) was “significant prolonging effect on the survival rate”. The “Amount of change (Δ) in EF compared with control” value ([1]; 2 weeks and 4 weeks after start of administration) was “significantly higher”, the “Body weight gain compared with control” value ([1]; 6 weeks and 8 weeks after start of administration) was “suppressed” and the “Effect on heart rate in echocardiography at Tmax” value ([1]; oral 3 mg/kg) was “no effect on the heart rate”. For the same compound, the Tmax [2] was 1.5 to 2.5 h, the No-observed-adverse-effect level (rats) was 3 mg/kg and the “Body weight 0 W” value ([3]; Test 1, at grouping) was 112.5 g. The “LVIDd 4 W” value ([3]; Test 1, p.o. b.i.d.) was 6.9 mm, the “LVIDd 8 W” value ([3]; Test 1, p.o. b.i.d.) was 7.6 mm and the “LVIDs 4 W” value ([3]; Test 1, p.o. b.i.d.) was 5.6 mm. The “LVIDs 8 W” value ([3]; Test 1, p.o. b.i.d.) was 6.2 mm, the “Body weight 4 W” value [3, 6] was 120.2 g and the “Body weight 8 W” value [3, 6] was 120.6 g. The No-observed-adverse-effect level (dogs) was 3 mg/kg, the “Action on left ventricular systolic function” value ([4]; MI Test 1, 28-day repeated oral administration b.i.d., NOAEL-based doses) was “suppression action on the deterioration of left ventricular systolic function” and the “Body weight” value ([4]; 1 Day (grouping)) was 231.4 ± 4.9 g. The % FS: value of change compared with the value on Day 1 ([4]; 7 Day) was 1%, the “Body weight” value ([4]; 7 Day) was 237.8 ± 15.0 g and the EF: value of change compared with the value on Day 1 ([4]; 7 Day) was 1%. For the same compound, the % FS: value of change compared with the value on Day 1 ([4]; 14 Day) was 0%, the “Body weight” value ([4]; 14 Day) was 257.1 ± 20.7 g and the EF: value of change compared with the value on Day 1 ([4]; 14 Day) was 0%. The “Body weight” value ([4]; 21 Day) was 277.1 ± 17.3 g, the % FS: value of change compared with the value on Day 1 ([4]; 29 Day) was -3% and the “Body weight” value ([4]; 29 Day) was 293.6 ± 18.9 g. For the same compound, the EF: value of change compared with the value on Day 1 ([4]; 29 Day) was -6%, the “Effect in long-term administration compared with candesartan” value [5] was “effect superior to that of candesartan” and the “EF compared with control group” value ([5]; 3.0 mg/kg) was “significant improvement effect”. For the same compound, the “FS% compared with control group” value ([5]; 3.0 mg/kg) was “Significantly higher values”.
